We go through 39 molecules from patent US20140179681A1, “METHODS AND COMPOSITIONS OF TARGETED DRUG DEVELOPMENT” (priority 2010, published 2014).

Counter-ions that a name gives are not always drawn.

For the assay, the target named is T1, EGFR (Homo sapiens, UniProt P00533).
T1 construct: host or cells: A431
Description: EGFR in-cell Western (ICW) screening protocol (EGFR inhibition assay). The format is cell-based. Also noted: ICW 1 / ICW 2 / ICW Avg: unit not given here. Particulars: for ICW Avg / ICW 1 / ICW 2: ICW assay; for ICW Avg: average of runs 1 and 2; for ICW 1: run 1; for ICW 2: run 2; for ICW Screen: Table 11, % Inhibition of EGF dependent EGFR phosphorylation in A431 cells, compound 125 μM in assay. The procedure:
The following example describes general EGFR in-cell Western (ICW) screening protocol. Methods are according to Chen et al. (2005) Analytical Biochemistry 338, 136-142 (incorporated herein by reference), except as otherwise noted.
Cell Plates: A431 cells (ATCC # CRL-1555) were grown in Dulbecco's Modified Eagle Medium (DMEM; ATCC #30-2002) supplemented with 10% fetal bovine serum, 105 units/ml pen/strep (Invitrogen #15140155) and 2.1 mM L-glutamine (ATCC #30-2214). Cells were seeded into 96 well tissue culture plates (BD Falcon #353948) at a density of 30,000 cells per well and incubated at 37° C. with 5% CO2 overnight. Two cell plates were prepared for each compound plate.
Serum Starvation: The cells were serum starved prior to compound addition. The media was removed by aspiration and the cells washed with PBS (200 μl/well; Invitrogen #20012-027). The PBS was removed by aspiration and replaced with 200 μl of DMEM (ATCC #30-2002) supplemented with 105 units/ml pen/strep (Invitrogen #15140155) and 2.1 mM 1-glutamine (ATCC #30-2214). The cell plates were incubated at 37° C./5% CO2 for 2 hours.
Compound Plate Preparation: The test compounds were solvated in 100% DMSO (Sigma #472301-2L) at a concentration of 25 mM. Compounds found not to be completely soluble in 100% DMSO at 25 mM were diluted to 10 mM with 100% DMSO and TFA (Fluka #91699) added to a final concentration of 0.2%. 40 μl of test compound was added to the appropriate well of a 96 well plate (Falcon #351190). As controls, 6 μM EGFR kinase inhibitor PD168393 (EMD/Calbiochem #513033) in 100% DMSO and DMSO alone were added to various wells. Prepared compound plates were stored at RT prior to use and at 4° C. long term.
Compound Dilution Plate Preparation: 250 μl of DMEM supplemented with 1 mg/ml BSA (Sigma A3059-10G) was added to the appropriate wells of a 96 well plate to prepare the compound dilution plates. Using a multichannel pipettor, 1.25 μl of compound from the compound plate was transferred into the compound dilution plate.
Compound Addition: The starve media was removed from the cell plates by aspiration. Using a multichannel pipettor, the compound dilution plates were mixed by pipetting up and down three times. 50 μl of mixed, diluted compound was added to each of two rows/columns on each of two cell plates. The cell plates with compound were incubated at 37° C./5% CO2 for 4 hours.
EGF Addition: 20 ng/ml EGF (Upstate #01-107) was prepared in DMEM supplemented with 1 mg/ml BSA. 50 μl of 20 or 0 ng/ml EGF was added to the appropriate wells without the removal of compound. The compound and EGF were mixed by pipetting up and down three times. The plates were incubated at 37° C./5% CO2 for 10 min. In some screening assays the final concentration of EGF used for simulation was 6.6, or 12.5 ng/ml rather than 10 ng/ml.
Fixation and Triton Washing: The EGF+compound was removed by aspiration and 150 μl of freshly prepared Fixation Solution (1×PBS, Sigma P3813-10PK, and 4% Formaldehyde, Pierce #28908) was immediately added. The plates were incubated at RT for 20 min without shaking. The Fixation Solution was removed by aspiration and the plates washed four times with 200 μl each of Triton Wash Solution (1×PBS, Sigma P3813-10PK, and 0.1% Triton X-100, T8787-50ML) for 5 min with gentle shaking.
Blocking and Probing: Following the last Triton Wash, the plates were blocked for 1.5 h at RT with shaking using 150 μl of Odyssey Blocking Buffer (LI-COR #927-40000). The block was removed by aspiration and 50 μl of diluted primary Ab mix was added. The plates were incubated at 4° C. overnight with gentle shaking. The plates were washed five times with 200 μl of PBST (1×PBS, Sigma P3813-10PK, and 0.1% Tween-20, Sigma P9416-50ML) for 5 min each with shaking 50 μl of diluted secondary Ab mix was added and the plates incubated at RT for 1 h with shaking. The plates were washed 5× with 200 μl of PBST for 5 min each with shaking. […]

T1 sequence (P00533 25-1210): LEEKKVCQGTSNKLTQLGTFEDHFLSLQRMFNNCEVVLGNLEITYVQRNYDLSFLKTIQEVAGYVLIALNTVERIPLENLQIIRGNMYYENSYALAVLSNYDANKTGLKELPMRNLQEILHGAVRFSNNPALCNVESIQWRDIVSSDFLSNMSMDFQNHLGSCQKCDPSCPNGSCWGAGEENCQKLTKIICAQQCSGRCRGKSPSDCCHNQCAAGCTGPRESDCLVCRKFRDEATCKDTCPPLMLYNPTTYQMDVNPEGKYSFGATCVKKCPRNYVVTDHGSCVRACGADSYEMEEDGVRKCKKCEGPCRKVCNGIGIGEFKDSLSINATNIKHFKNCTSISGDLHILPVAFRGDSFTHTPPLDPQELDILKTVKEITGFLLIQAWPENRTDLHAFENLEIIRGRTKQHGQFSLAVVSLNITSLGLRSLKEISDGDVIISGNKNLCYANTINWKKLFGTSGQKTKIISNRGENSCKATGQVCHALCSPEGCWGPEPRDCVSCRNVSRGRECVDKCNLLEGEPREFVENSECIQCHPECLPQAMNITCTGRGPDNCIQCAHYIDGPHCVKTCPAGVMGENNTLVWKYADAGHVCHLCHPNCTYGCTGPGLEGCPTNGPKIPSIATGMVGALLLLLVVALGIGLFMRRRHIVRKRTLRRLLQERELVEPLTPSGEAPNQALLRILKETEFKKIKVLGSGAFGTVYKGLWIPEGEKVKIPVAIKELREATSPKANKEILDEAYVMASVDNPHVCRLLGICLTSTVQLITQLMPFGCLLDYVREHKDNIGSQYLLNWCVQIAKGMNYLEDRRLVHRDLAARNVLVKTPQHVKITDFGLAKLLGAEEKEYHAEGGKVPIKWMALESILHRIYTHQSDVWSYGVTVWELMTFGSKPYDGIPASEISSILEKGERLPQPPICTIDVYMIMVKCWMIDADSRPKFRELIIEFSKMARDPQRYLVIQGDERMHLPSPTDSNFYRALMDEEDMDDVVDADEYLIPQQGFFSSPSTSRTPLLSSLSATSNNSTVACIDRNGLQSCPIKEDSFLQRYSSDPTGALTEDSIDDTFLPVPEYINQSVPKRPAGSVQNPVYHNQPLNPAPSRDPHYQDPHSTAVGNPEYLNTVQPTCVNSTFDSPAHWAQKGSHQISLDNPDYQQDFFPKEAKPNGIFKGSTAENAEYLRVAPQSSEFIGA

With `Cc1cc(C)c2nc(Nc3nc4c(c(=O)[nH]3)CCCC4)nc(C)c2c1` [11483 + TFA], the “ICW Avg” value came out at 29.27, the “ICW 1” value is 29.55 and the “ICW 2” value worked out at 28.99. For the molecule `Cc1cc(C)c2nc(Nc3nc(C)cc(=O)[nH]3)nc(C)c2c1` [11607 + TFA], the “ICW Avg” value turned out to be 42.71, the “ICW 1” value turned out to be 43.69 and the “ICW 2” value is on record as 41.73. For the molecule `CC(=O)NC(=S)Nc1ccc(S(=O)(=O)N2CCc3ccccc32)cc1` [AD4-10103], the “ICW Screen (ICW Inhibition)” value was 29.295. `Cc1cc2oc(=O)cc(CN3CCN(CCO)CC3)c2cc1C` [AD4-10176]: the “ICW Screen” value is 42.066. In the case of `CCc1ccc2oc(=O)cc(CN3CCN(CCO)CC3)c2c1` [AD4-10178], the “ICW Screen” value came to 34.907. As for `COc1ccc(CC(=O)NC(=S)Nc2ccc(S(=O)(=O)NCCc3ccccc3)cc2)cc1` [AD4-10622], the “ICW Screen (ICW Inhibition)” value is reported as 25.347. Same read-out and setting: the same measure for `COc1cc(NS(=O)(=O)c2ccc(NC(=S)NC(=O)CCc3ccc(F)cc3)cc2)ncn1` [AD4-11384]: 28.127; for `CCc1nnc(NS(=O)(=O)c2ccc(NC(=S)NC(=O)C34CC5CC(CC(C5)C3)C4)cc2)s1` [AD4-11385]: 28.892; for `COc1ccc(CC(=O)NC(=S)Nc2ccc(S(=O)(=O)Nc3nc(C)cc(C)n3)cc2)cc1` [AD4-11395]: 26.301. Turning to `Cc1ccc(OCC(=O)NC(=S)Nc2ccc(S(=O)(=O)N3CCOCC3)cc2)c(Br)c1` [AD4-11401], the “ICW Screen (ICW Inhibition)” value is given as 25.557. As to `COc1cc(NS(=O)(=O)c2ccc(NC(=S)NC(=O)CCc3ccccc3)cc2)nc(OC)n1` [AD4-11405], the “ICW Screen (ICW Inhibition)” value is given as 26.497.

As for `COc1ccc(CC(=O)NC(=S)Nc2ccc(S(=O)(=O)N3CCOCC3)cc2)cc1` [AD4-11406], the “ICW Screen (ICW Inhibition)” value came to 26.851. As to `CCN(c1ccccc1)S(=O)(=O)c1ccc(NC(=S)NC(=O)C2CCCCC2)cc1` [AD4-11407], the “ICW Screen (ICW Inhibition)” value is recorded as 27.585. Still for that read-out and setting: the same measure for `CN(Cc1ccccc1)S(=O)(=O)c1ccc(NC(=S)NC(=O)C2CCCCC2)cc1` [AD4-11410]: 28.101. On to `CN1CCN(S(=O)(=O)c2ccc(NC(=S)NC(=O)c3ccccc3)cc2)CC1` [AD4-11420], for which the “ICW Screen (ICW Inhibition)” value was 30.052. The same measure, in the same setting: the same measure for `CN1CCN(S(=O)(=O)c2ccc(NC(=S)NC(=O)CCc3ccccc3)cc2)CC1` [AD4-11424]: 28.422. Regarding `COc1ccc(NS(=O)(=O)c2ccc(NC(=S)NC(=O)C3CCCC3)cc2)cc1` [AD4-11523], the “ICW Screen (ICW Inhibition)” value was 26.098.

For `COc1cc(OC)nc(NS(=O)(=O)c2ccc(NC(=S)NC(=O)C3CCCC3)cc2)n1` [AD4-11536], the “ICW Screen (ICW Inhibition)” value is on record as 27.431. Still for that read-out and setting: the same measure for `CCc1nnc(NS(=O)(=O)c2ccc(NC(=S)NC(=O)/C=C/c3ccccc3)cc2)s1` [AD4-11861]: 30.242; for `Cc1cc(NS(=O)(=O)c2ccc(NC(=S)NC(=O)/C=C/c3cccs3)cc2)no1` [AD4-11863]: 27.36; for `CCc1nnc(NS(=O)(=O)c2ccc(NC(=S)NC(=O)/C=C/c3ccc(C)cc3)cc2)s1` [AD4-11879]: 25.689. Regarding `COc1ccc(NS(=O)(=O)c2ccc(NC(=S)NC(=O)/C=C/c3ccccc3)cc2)nn1` [AD4-11888], the “ICW Screen (ICW Inhibition)” value worked out at 26.355. Turning to `CN1CCN(S(=O)(=O)c2ccc(NC(=S)NC(=O)C3CCCC3)cc2)CC1` [AD4-11973], the “ICW Screen (ICW Inhibition)” value is listed as 27.176. The same measure, in the same setting: the same measure for `CC(C)(C)NS(=O)(=O)c1ccc(NC(=S)NC(=O)C2CCC2)cc1` [AD4-11976]: 26.918; for `CN(C1CCCCC1)S(=O)(=O)c1ccc(NC(=S)NC(=O)C2CC2)cc1` [AD4-11986]: 25.368. `COc1ccc(NS(=O)(=O)c2ccc(NC(=S)NC(=O)C(C)(C)C)cc2)cc1` [AD4-11994]: the “ICW Screen (ICW Inhibition)” value is recorded as 27.18.

Take `CCOc1ccc(NS(=O)(=O)c2ccc(NC(=S)NC(=O)CC(C)C)cc2)cc1` [AD4-12014]: the “ICW Screen (ICW Inhibition)” value was found to be 25.611. In the case of `CN(Cc1ccccc1)S(=O)(=O)c1ccc(NC(=S)NC(=O)C2CCCC2)cc1` [AD4-12039], the “ICW Screen (ICW Inhibition)” value is 29.977. `CC(C)C(=O)NC(=S)Nc1ccc(S(=O)(=O)N(C)Cc2ccccc2)cc1` [AD4-12051]: the “ICW Screen (ICW Inhibition)” value came to 28.852. For the molecule `CC(=O)NS(=O)(=O)c1ccc(NC(=S)NC(=O)Cc2cccc3ccccc23)cc1` [AD4-12071], the “ICW Screen (ICW Inhibition)” value was 27.713.

For `C=CCN(CC=C)S(=O)(=O)c1ccc(NC(=S)NC(=O)/C=C/c2ccccc2)cc1` [AD4-12092], the “ICW Screen (ICW Inhibition)” value is 25.019.

With `Cc1ccc(NS(=O)(=O)c2ccc(NC(=S)NC(=O)CCc3ccccc3)cc2)cc1C` [AD4-12103], the “ICW Screen (ICW Inhibition)” value is 26.212. In the case of `COc1ccc(CC(=O)NC(=S)Nc2ccc(S(=O)(=O)NC(C)(C)C)cc2)cc1` [AD4-12133], the “ICW Screen (ICW Inhibition)” value is listed as 25.058. As to `O=C(CCc1ccccc1)NC(=S)Nc1ccc(S(=O)(=O)N2CCOCC2)cc1` [AD4-12147], the “ICW Screen (ICW Inhibition)” value was 26.967. Same read-out and setting: the result for `C=CCN(CC=C)S(=O)(=O)c1ccc(NC(=S)NC(=O)/C=C/c2ccc(F)cc2)cc1` [AD4-12157] reads 26.73; that for `Cc1cc(C)nc(NS(=O)(=O)c2ccc(NC(=S)NC(=O)C3CCCC3)cc2)n1` [AD4-12163], 26.671; that for `O=C(NC(=S)Nc1ccc(S(=O)(=O)N2CCc3ccccc32)cc1)C1CCCC1` [AD4-12291], 25.191.

`Cc1cc(-c2ccccc2)nc(Nc2nc(C)c3cc(C)c(C)cc3n2)n1` [compound 11309]: the “ICW Avg” value is reported as 37.00, the “ICW 1” value is on record as 33.31 and the “ICW 2” value worked out at 40.70. Consider `CCCc1c[nH]c(Nc2nc(C)c3ccccc3n2)nc1=O` [compound 12662], for which the “ICW Avg” value is given as 25.21, the “ICW 1” value is recorded as 21.64 and the “ICW 2” value is 28.79.
